Reference: ChEMBL document CHEMBL1154064, “Synthesis and DNA cleavage activity of 2-hydrazinyl-1,4,5,6-tetrahydropyrimidine containing hydroxy group” (2009)
Calls of active or inactive are those of the source. The calls are words filed in the database; no cut-off is given here.

Key:
Nucleic Acid [1] = assay: Binding affinity to Escherichia coli pUC19 DNA assessed as form 1 DNA level at 0.262 mM after 23.02 hrs by agarose gel electrophoresis; type: nucleic-acid assay
Nucleic Acid [2] = assay: Binding affinity to Escherichia coli pUC19 DNA assessed as form 1 DNA level at 0.698 mM after 8.45 hrs by agarose gel electrophoresis; type: nucleic-acid assay
Nucleic Acid [3] = assay: Binding affinity to Escherichia coli pUC19 DNA assessed as form 1 DNA level at 0.463 mM after 29.33 hrs by agarose gel electrophoresis; type: nucleic-acid assay
Nucleic Acid [4] = assay: Binding affinity to supercoiled Escherichia coli pUC19 DNA assessed as formation of nicked circular DNA at 1.10 mM at pH 6.0 for 24 hrs in presence of potassium iodide by agarose gel electrophoresis; type: nucleic-acid assay
Nucleic Acid [5] = assay: Binding affinity to Escherichia coli pUC19 DNA assessed as form 2 DNA level at 0.320 mM after 13.07 hrs by agarose gel electrophoresis; type: nucleic-acid assay
Nucleic Acid [6] = assay: Binding affinity to Escherichia coli pUC19 DNA assessed as form 1 DNA level at 0.349 mM after 11.33 hrs by agarose gel electrophoresis; type: nucleic-acid assay
Nucleic Acid [7] = assay: Binding affinity to Escherichia coli pUC19 DNA assessed as form 1 DNA level at 0.463 mM after 9.07 hrs by agarose gel electrophoresis; type: nucleic-acid assay
Nucleic Acid [8] = assay: Binding affinity to Escherichia coli pUC19 DNA assessed as form 2 DNA level at 0.320 mM after 9.07 hrs by agarose gel electrophoresis; type: nucleic-acid assay
Nucleic Acid [9] = assay: Binding affinity to Escherichia coli pUC19 DNA assessed as form 2 DNA level at 0.463 mM after 27.33 hrs by agarose gel electrophoresis; type: nucleic-acid assay
Nucleic Acid [10] = assay: Binding affinity to Escherichia coli pUC19 DNA assessed as form 1 DNA level at 0.262 mM after 25.02 hrs by agarose gel electrophoresis; type: nucleic-acid assay
Nucleic Acid [11] = assay: Binding affinity to Escherichia coli pUC19 DNA assessed as form 1 DNA level at 0.175 mM after 13.07 hrs by agarose gel electrophoresis; type: nucleic-acid assay
Nucleic Acid [12] = assay: Binding affinity to Escherichia coli pUC19 DNA assessed as form 1 DNA level at 0.175 mM after 27.33 hrs by agarose gel electrophoresis; type: nucleic-acid assay
Nucleic Acid [13] = assay: Binding affinity to Escherichia coli pUC19 DNA assessed as form 2 DNA level at 0.698 mM after 3.72 hrs by agarose gel electrophoresis; type: nucleic-acid assay
Nucleic Acid [14] = assay: Binding affinity to Escherichia coli pUC19 DNA assessed as form 1 DNA level at 0.463 mM after 31.48 hrs by agarose gel electrophoresis; type: nucleic-acid assay
Nucleic Acid [15] = assay: Binding affinity to Escherichia coli pUC19 DNA assessed as form 1 DNA level at 0.175 mM after 29.33 hrs by agarose gel electrophoresis; type: nucleic-acid assay
Nucleic Acid [16] = assay: Binding affinity to Escherichia coli pUC19 DNA assessed as form 2 DNA level at 0.463 mM after 25.35 hrs by agarose gel electrophoresis; type: nucleic-acid assay
Nucleic Acid [17] = assay: Binding affinity to Escherichia coli pUC19 DNA assessed as form 2 DNA level at 0.349 mM after 23.02 hrs by agarose gel electrophoresis; type: nucleic-acid assay
Nucleic Acid [18] = assay: Binding affinity to Escherichia coli pUC19 DNA assessed as form 1 DNA level at 0.130 mM by agarose gel electrophoresis; type: nucleic-acid assay
Nucleic Acid [19] = assay: Binding affinity to Escherichia coli pUC19 DNA assessed as form 2 DNA level at 0.130 mM by agarose gel electrophoresis; type: nucleic-acid assay
HL-60 [20] = assay: Growth inhibition of human HL60 cells at 10 uM after 72 hrs by MTT assay; type: functional; parameters: scale not given: the % may be the effect or the level left
Nucleic Acid [21] = assay: Binding affinity to Escherichia coli pUC19 DNA assessed as form 2 DNA level at 0.130 mM after 8.08 hrs by agarose gel electrophoresis; type: nucleic-acid assay
Nucleic Acid [22] = assay: Binding affinity to Escherichia coli pUC19 DNA assessed as form 1 DNA level at 0.130 mM after 5.42 hrs by agarose gel electrophoresis; type: nucleic-acid assay
Nucleic Acid [23] = assay: Binding affinity to Escherichia coli pUC19 DNA assessed as form 1 DNA level at 0.349 mM after 23.02 hrs by agarose gel electrophoresis; type: nucleic-acid assay
Nucleic Acid [24] = assay: Binding affinity to Escherichia coli pUC19 DNA assessed as form 1 DNA level at 0.698 mM after 23.80 hrs by agarose gel electrophoresis; type: nucleic-acid assay
Nucleic Acid [25] = assay: Binding affinity to Escherichia coli pUC19 DNA assessed as form 2 DNA level at 0.698 mM after 23.80 hrs by agarose gel electrophoresis; type: nucleic-acid assay
Nucleic Acid [26] = assay: Binding affinity to Escherichia coli pUC19 DNA assessed as form 1 DNA level at 0.698 mM after 3.72 hrs by agarose gel electrophoresis; type: nucleic-acid assay
Nucleic Acid [27] = assay: Binding affinity to Escherichia coli pUC19 DNA assessed as form 2 DNA level at 0.262 mM after 24.08 hrs by agarose gel electrophoresis; type: nucleic-acid assay
Nucleic Acid [28] = assay: Binding affinity to supercoiled Escherichia coli pUC19 DNA assessed as formation of nicked circular DNA at 1.10 mM at pH 6.0 for 24 hrs in presence of sodium azide by agarose gel electrophoresis; type: nucleic-acid assay
Nucleic Acid [29] = assay: Binding affinity to Escherichia coli pUC19 DNA assessed as form 1 DNA level at 0.320 mM after 25.35 hrs by agarose gel electrophoresis; type: nucleic-acid assay
Nucleic Acid [30] = assay: Binding affinity to Escherichia coli pUC19 DNA assessed as form 2 DNA level at 0.698 mM after 12.13 hrs by agarose gel electrophoresis; type: nucleic-acid assay
Nucleic Acid [31] = assay: Binding affinity to Escherichia coli pUC19 DNA assessed as form 2 DNA level at 0.463 mM after 9.07 hrs by agarose gel electrophoresis; type: nucleic-acid assay
Nucleic Acid [32] = assay: Binding affinity to Escherichia coli pUC19 DNA assessed as form 1 DNA level at 0.262 mM after 24.08 hrs by agarose gel electrophoresis; type: nucleic-acid assay
Nucleic Acid [33] = assay: Binding affinity to Escherichia coli pUC19 DNA assessed as form 2 DNA level at 0.130 mM after 5.42 hrs by agarose gel electrophoresis; type: nucleic-acid assay
Nucleic Acid [34] = assay: Binding affinity to Escherichia coli pUC19 DNA assessed as form 2 DNA level at 0.175 mM after 23.12 hrs by agarose gel electrophoresis; type: nucleic-acid assay
HL-60 [35] = assay: Growth inhibition of human HL60 cells at 1000 uM after 72 hrs by MTT assay; type: functional; parameters: scale not given: the % may be the effect or the level left
Nucleic Acid [36] = assay: Binding affinity to Escherichia coli pUC19 DNA assessed as form 2 DNA level at 0.175 mM after 27.33 hrs by agarose gel electrophoresis; type: nucleic-acid assay
Nucleic Acid [37] = assay: Binding affinity to Escherichia coli pUC19 DNA assessed as form 2 DNA level at 0.320 mM after 29.33 hrs by agarose gel electrophoresis; type: nucleic-acid assay
Nucleic Acid [38] = assay: Binding affinity to Escherichia coli pUC19 DNA assessed as form 2 DNA level at 0.175 mM after 31.48 hrs by agarose gel electrophoresis; type: nucleic-acid assay
Nucleic Acid [39] = assay: Binding affinity to Escherichia coli pUC19 DNA assessed as form 1 DNA level at 0.175 mM after 23.12 hrs by agarose gel electrophoresis; type: nucleic-acid assay
Nucleic Acid [40] = assay: Binding affinity to Escherichia coli pUC19 DNA assessed as form 1 DNA level at 0.175 mM by agarose gel electrophoresis; type: nucleic-acid assay

Structure (SMILES): Cl.Cl.NNC1=NCC(O)CN1 (stereo not given)
- Activity (Nucleic Acid [1]): 90.1%
- Activity (Nucleic Acid [2]): 84.8%
- Activity (Nucleic Acid [3]): 57.8%
- Activity (Nucleic Acid [4]): inactive
- Activity (Nucleic Acid [5]): 87.8%
- Activity (Nucleic Acid [6]): 90.9%
- Activity (Nucleic Acid [7]): 83.3%
- Activity (Nucleic Acid [8]): 91.7%
- Activity (Nucleic Acid [9]): 40.6%
- Activity (Nucleic Acid [10]): 88.1%
- Activity (Nucleic Acid [11]): 90.8%
- Activity (Nucleic Acid [12]): 76%
- Activity (Nucleic Acid [13]): 5.08%
- Activity (Nucleic Acid [14]): 51.1%
- Activity (Nucleic Acid [15]): 76.3%
- Activity (Nucleic Acid [16]): 39.8%
- Activity (Nucleic Acid [17]): 27.7%
- Activity (Nucleic Acid [18]): 88.6%
- Activity (Nucleic Acid [19]): 11.4%
- Activity (HL-60 [20]): 2%
- Activity (Nucleic Acid [21]): 16.2%
- Activity (Nucleic Acid [22]): 85%
- Activity (Nucleic Acid [23]): 72.3%
- Activity (Nucleic Acid [24]): 55%
- Activity (Nucleic Acid [25]): 45%
- Activity (Nucleic Acid [26]): 94.9%
- Activity (Nucleic Acid [27]): 10.5%
- Activity (Nucleic Acid [28]): inactive
- Activity (Nucleic Acid [29]): 64%
- Activity (Nucleic Acid [30]): 23%
- Activity (Nucleic Acid [31]): 16.6%
- Activity (Nucleic Acid [32]): 89.5%
- Activity (Nucleic Acid [33]): 14.9%
- Activity (Nucleic Acid [34]): 19.2%
- Activity (HL-60 [35]): 91%
- Activity (Nucleic Acid [36]): 24%
- Activity (Nucleic Acid [37]): 65.2%
- Activity (Nucleic Acid [38]): 26%
- Activity (Nucleic Acid [39]): 80.8%
- Activity (Nucleic Acid [40]): 97.1%
